Assay results taken from patent US9409908B2 (priority 2012, dated 2016).
Structures can show the parent of a compound that is named as a salt. Where two headings read alike, the source gives them in different places.

Experiments:
[1] = target: purified human Factor XIa (Homo sapiens (Human), UniProt P03951); test: biochemical; assay type: biochemical
[2] = target: purified human plasma kallikrein (Homo sapiens (Human), UniProt P03952); test: biochemical; assay type: biochemical
[3] = TFA salt, read-out: Factor XIa Ki
[4] = TFA salt, read-out: Plasma Kallikrein Ki

Sequence of purified human plasma kallikrein (P03952 whole entry, looked up): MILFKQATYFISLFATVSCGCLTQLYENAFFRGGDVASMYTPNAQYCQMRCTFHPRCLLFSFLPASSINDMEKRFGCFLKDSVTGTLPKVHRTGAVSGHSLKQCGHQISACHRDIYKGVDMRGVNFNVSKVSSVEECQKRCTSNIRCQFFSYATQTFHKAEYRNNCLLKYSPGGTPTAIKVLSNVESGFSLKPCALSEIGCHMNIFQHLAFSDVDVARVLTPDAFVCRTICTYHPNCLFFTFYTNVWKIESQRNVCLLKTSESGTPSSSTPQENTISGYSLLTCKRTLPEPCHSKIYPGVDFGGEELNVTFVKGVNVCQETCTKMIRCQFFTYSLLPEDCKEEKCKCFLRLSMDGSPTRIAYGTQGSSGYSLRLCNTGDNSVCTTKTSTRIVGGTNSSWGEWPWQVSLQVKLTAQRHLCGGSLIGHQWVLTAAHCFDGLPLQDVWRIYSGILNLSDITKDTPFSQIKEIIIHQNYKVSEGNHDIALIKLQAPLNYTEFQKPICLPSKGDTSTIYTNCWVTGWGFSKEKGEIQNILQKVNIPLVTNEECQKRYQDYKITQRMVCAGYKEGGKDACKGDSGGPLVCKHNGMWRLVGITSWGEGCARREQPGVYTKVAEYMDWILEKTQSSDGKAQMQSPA
Sequence of purified human plasma kallikrein (P03952 whole entry partner, looked up): as the sequence (P03952 whole entry, looked up) above
Sequence of purified human Factor XIa (P03951 whole entry, looked up): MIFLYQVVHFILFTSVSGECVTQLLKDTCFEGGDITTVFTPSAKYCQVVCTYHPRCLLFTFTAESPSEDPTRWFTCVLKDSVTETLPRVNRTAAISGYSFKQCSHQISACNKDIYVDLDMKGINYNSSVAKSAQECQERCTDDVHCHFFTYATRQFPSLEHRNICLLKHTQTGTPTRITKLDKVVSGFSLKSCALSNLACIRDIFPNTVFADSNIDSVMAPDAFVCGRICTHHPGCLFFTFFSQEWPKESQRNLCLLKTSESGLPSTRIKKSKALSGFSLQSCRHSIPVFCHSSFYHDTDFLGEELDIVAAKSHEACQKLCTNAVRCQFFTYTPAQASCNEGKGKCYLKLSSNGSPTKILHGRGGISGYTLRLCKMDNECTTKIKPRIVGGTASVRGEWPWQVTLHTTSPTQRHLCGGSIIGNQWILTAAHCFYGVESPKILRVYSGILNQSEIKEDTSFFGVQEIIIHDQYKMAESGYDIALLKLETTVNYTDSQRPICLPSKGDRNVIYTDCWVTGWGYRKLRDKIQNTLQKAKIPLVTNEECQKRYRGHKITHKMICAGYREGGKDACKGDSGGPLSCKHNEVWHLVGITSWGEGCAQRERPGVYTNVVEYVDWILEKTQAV
Sequence of purified human Factor XIa (P03951 whole entry partner, looked up): as the sequence (P03951 whole entry, looked up) above

Compound | Ki ([1]; read-out: Factor XIa Ki) [nM] | Ki ([2]; read-out: Plasma Kallikrein Ki) [nM] | further results
COC(=O)Nc1ccc2c(c1)NC(=O)[C@H](C)CCC[C@H](N1CCC(C3CCCC(C)C3)=CC1=O)c1cc-2ccn1 (single isomer, unassigned) [Example 225, TFA salt] |  |  | Ki [1, 3]: 26.1 nM; Ki [2, 4]: 95.5 nM
COC(=O)Nc1ccc2c(c1)NC(=O)[C@H](C)CCC[C@H](N1CCC(C3CCCC(C)C3)=CC1=O)c1cc-2ccn1 (single isomer, unassigned) [Example 226, TFA salt] |  |  | Ki [1, 3]: 24.6 nM; Ki [2, 4]: 165 nM
COC(=O)Nc1ccc2c(c1)C(=O)N[C@H](C)CCC[C@H](N1CCC(c3c(F)ccc(Cl)c3F)=CC1=O)c1cc-2ccn1 (single isomer, unassigned; diastereomer b) [Example 194, TFA salt] |  |  | Ki [1]: > 422 nM; Ki ([2]; Plasma Kallikrein Ki): 310 nM
COC(=O)Nc1ccc2c(c1)NC(=O)[C@H](C)CCC[C@H](N1CC(C)C(c3c(F)ccc(Cl)c3F)=CC1=O)c1cc-2ccn1 (single isomer, unassigned; isomer 1) [Example 177] |  |  | Ki [1]: 0.8 nM; Ki ([2]; Plasma Kallikrein Ki): 4.02 nM
COC(=O)Nc1ccc2c(c1)NC(=O)[C@H](C)CCC[C@H](N1CCC(c3c(OC)ccc(Cl)c3F)=CC1=O)c1cc-2ccn1 [Example 1, Methyl N-[(10R,14S)-14-[4-(3-chloro-2-fluoro-6-methoxyphenyl)-6-oxo-1,2,3,6-tetrahydropyridin-1-yl]-10-methyl-9-oxo-8,16-diazatricyclo[13.3.1.0^2,7]nonadeca-1(19),2,4,6,15,17-hexaen-5-yl]carbamate, TFA salt] | 0.87 | 10 | 
COC(=O)Nc1ccc2c(c1)NC(=O)[C@H](C)CCC[C@H](N1CCC(c3c(C)ccc(Cl)c3F)=CC1=O)c1cc-2ccn1 [Example 2, Methyl N-[(10R,14S)-14-[4-(3-chloro-2-fluoro-6-methylphenyl)-6-oxo-1,2,3,6-tetrahydropyridin-1-yl]-10-methyl-9-oxo-8,16-diazatricyclo[13.3.1.0^2,7]nonadeca-1(19),2,4,6,15,17-hexaen-5-yl]carbamate, TFA salt] | 0.23 | 5 | 
COC(=O)Nc1ccc2c(c1)NC(=O)[C@H](C)CCC[C@H](N1CCC(c3c(C#N)ccc(Cl)c3F)=CC1=O)c1cc-2ccn1 [Example 3, Methyl N-[(10R,14S)-14-[4-(3-chloro-6-cyano-2-fluorophenyl)-6-oxo-1,2,3,6-tetrahydropyridin-1-yl]-10-methyl-9-oxo-8,16-diazatricyclo[13.3.1.0^2,7]nonadeca-1(19),2,4,6,15,17-hexaen-5-yl]carbamate, TFA salt] | 0.03 | 1 | 
COC(=O)Nc1ccc2c(c1)NC(=O)[C@H](C)CCC[C@H](N1CCC(c3c(F)cccc3C#N)=CC1=O)c1cc-2ccn1 [Example 4, Methyl N-[(10R,14S)-14-[4-(2-cyano-6-fluorophenyl)-6-oxo-1,2,3,6-tetrahydropyridin-1-yl]-10-methyl-9-oxo-8,16-diazatricyclo[13.3.1.0^2,7]nonadeca-1(19),2,4,6,15,17-hexaen-5-yl]carbamate, TFA salt] | 2.64 | 1 | 
COC(=O)Nc1ccc2c(c1)NC(=O)[C@H](C)CCC[C@H](N1CCC(c3nccc(Cl)c3F)=CC1=O)c1cc-2cc(OC)n1 [Example 5, Methyl N-[(10R,14S)-14-[4-(4-chloro-3-fluoropyridin-2-yl)-6-oxo-1,2,3,6-tetrahydropyridin-1-yl]-17-methoxy-10-methyl-9-oxo-8,16-diazatricyclo[13.3.1.0^2,7]nonadeca-1(18),2,4,6,15(19),16-hexaen-5-yl]carbamate, TFA salt] | 2 | 3 | 
COC(=O)Nc1ccc2c(c1)NC(=O)[C@H](C)CCC[C@H](N1CCC(c3nccc(Cl)c3OC)=CC1=O)c1cc-2cc(OC)n1 [Example 6, Methyl N-[(10R,14S)-14-[4-(4-chloro-3-methoxypyridin-2-yl)-6-oxo-1,2,3,6-tetrahydropyridin-1-yl]-17-methoxy-10-methyl-9-oxo-8,16-diazatricyclo[13.3.1.0^2,7]nonadeca-1(18),2,4,6,15(19),16-hexaen-5-yl]carbamate, TFA salt] | 158 | 303 | 
COC(=O)Nc1ccc2c(c1)NC(=O)[C@H](C)CCC[C@H](N1CCC(c3c(C#N)ccc(C#N)c3F)=CC1=O)c1cc-2cc(OC)n1 [Example 7, Methyl N-[(10R,14S)-14-[4-(3,6-dicyano-2-fluorophenyl)-6-oxo-1,2,3,6-tetrahydropyridin-1-yl]-17-methoxy-10-methyl-9-oxo-8,16-diazatricyclo[13.3.1.0^2,7]nonadeca-1(18),2,4,6,15(19),16-hexaen-5-yl]carbamate] | 5.42 | 10 | 
COC(=O)Nc1ccc2c(c1)NC(=O)[C@H](C)CCC[C@H](N1CCC(c3c(C#N)ccc4c(N)n[nH]c34)=CC1=O)c1cc-2cc(OC)n1 [Example 8, Methyl N-[(10R,14S)-14-[4-(3-amino-6-cyano-1H-indazol-7-yl)-6-oxo-1,2,3,6-tetrahydropyridin-1-yl]-17-methoxy-10-methyl-9-oxo-8,16-diazatricyclo[13.3.1.0^2,7]nonadeca-1(18),2,4,6,15(19),16-hexaen-5-yl]carbamate, TFA salt] | > 457 | 173 | 
COC(=O)Nc1ccc2c(c1)NC(=O)[C@H](C)CCC[C@H](N1CCC(c3c(C#N)ccc4c(N)noc34)=CC1=O)c1cc-2cc(OC)n1 [Example 9, Methyl N-[(10R,14S)-14-[4-(3-amino-6-cyano-1,2-benzoxazol-7-yl)-6-oxo-1,2,3,6-tetrahydropyridin-1-yl]-17-methoxy-10-methyl-9-oxo-8,16-diazatricyclo[13.3.1.0^2,7]nonadeca-1(18),2,4,6,15(19),16-hexaen-5-yl]carbamate, TFA salt] | 33.2 | 46 | 
COC(=O)Nc1ccc2c(c1)NC(=O)[C@H](C)CCC[C@H](N1CCC(c3nccc(Cl)c3F)=CC1=O)c1cc-2ccn1 [Example 10, Methyl N-[(10R,14S)-14-[4-(4-chloro-3-fluoropyridin-2-yl)-6-oxo-1,2,3,6-tetrahydropyridin-1-yl]-10-methyl-9-oxo-8,16-diazatricyclo[13.3.1.0^2,7]nonadeca-1(18),2,4,6,15(19),16-hexaen-5-yl]carbamate, TFA salt] | 0.92 | 1 | 
COC(=O)Nc1ccc2c(c1)NC(=O)[C@H](C)CCC[C@H](n1ncc(-c3c(F)ccc(Cl)c3F)cc1=O)c1cc-2ccn1 [Example 11, Methyl N-[(10R,14S)-14-[4-(3-chloro-2,6-difluorophenyl)-6-oxo-1,6-dihydropyridazin-1-yl]-10-methyl-9-oxo-8,16-diazatricyclo[13.3.1.0^2,7]nonadeca-1(19),2(7),3,5,15,17-hexaen-5-yl]carbamate, TFA salt] | 6.77 | 14 | 
C[C@@H]1CCC[C@H](N2CCC(c3c(F)ccc(Cl)c3F)=CC2=O)c2cc(ccn2)-c2ccccc2NC1=O [Example 13, (10R,14S)-14-[4-(3-Chloro-2,6-difluorophenyl)-6-oxo-1,2,3,6-tetrahydropyridin-1-yl]-10-methyl-8,16-diazatricyclo[13.3.1.0^2,7]nonadeca-1(19),2,4,6,15,17-hexaen-9-one] | 13.7 | 8 | 
C[C@@H]1CCC[C@H](N2CCC(c3c(F)ccc(Cl)c3F)=CC2=O)c2cc(ccn2)-c2ccc(Nc3ncccn3)cc2NC1=O [Example 16, (10R,14S)-14-[4-(3-Chloro-2,6-difluorophenyl)-6-oxo-1,2,3,6-tetrahydropyridin-1-yl]-10-methyl-5-[(pyrimidin-2-yl)amino]-8,16-diazatricyclo[13.3.1.0^2,7]nonadeca-1(19),2(7),3,5,15,17-hexaen-9-one, 2 TFA salt] | 1.15 | 1 | 
COc1ccc2c(c1)NC(=O)[C@H](C)CCC[C@H](N1CCC(c3c(F)ccc(Cl)c3F)=CC1=O)c1cc-2ccn1 [Example 17, (10R,14S)-14-[4-(3-chloro-2,6-difluorophenyl)-6-oxo-1,2,3,6-tetrahydropyridin-1-yl]-5-methoxy-10-methyl-8,16-diazatricyclo[13.3.1.0^2,7]nonadeca-1(19),2,4,6,15,17-hexaen-9-one, TFA salt] | 45.3 | 114 | 
C[C@@H]1CCC[C@H](N2CCC(c3c(F)ccc(Cl)c3F)=CC2=O)c2cc(ccn2)-c2cc(Cl)c(O)cc2NC1=O [Example 19, (10R,14S)-4-Chloro-14-[4-(3-chloro-2,6-difluorophenyl)-6-oxo-1,2,3,6-tetrahydropyridin-1-yl]-5-hydroxy-10-methyl-8,16-diazatricyclo[13.3.1.0^2,7]nonadeca-1(19),2,4,6,15,17-hexaen-9-one, TFA salt] | 15.5 | 52 | 
Cc1nnc(Nc2ccc3c(c2)NC(=O)[C@H](C)CCC[C@H](N2CCC(c4c(F)ccc(Cl)c4F)=CC2=O)c2cc-3ccn2)o1 [Example 21, (10R,14S)-14-[4-(3-Chloro-2,6-difluorophenyl)-6-oxo-1,2,3,6-tetrahydropyridin-1-yl]-10-methyl-5-[(5-methyl-1,3,4-oxadiazol-2-yl)amino]-8,16-diazatricyclo[13.3.1.0^2,7]nonadeca-1(19),2(7),3,5,15,17-hexaen-9-one, TFA salt] | 0.46 | 1 | 
COC(=O)Nc1ccc2c(c1)NC(=O)[C@H](C)CC(=O)C[C@H](N1CCC(c3c(F)ccc(Cl)c3F)=CC1=O)c1cc-2ccn1 [Example 22, Methyl N-[(10R,14S)-14-[4-(3-chloro-2,6-difluorophenyl)-6-oxo-1,2,3,6-tetrahydropyridin-1-yl]-10-methyl-9,12-dioxo-8,16-diazatricyclo[13.3.1.0^2,7]nonadeca-1(19),2,4,6,15,17-hexaen-5-yl]carbamate, TFA salt] | > 438 | 352 | 
COC(=O)Nc1ccc2c(c1)C(=O)NCCCC[C@H](N1CCC(c3c(F)ccc(Cl)c3F)=CC1=O)c1cc-2ccn1 [Example 24, Methyl N-[(14S)-14-[4-(3-chloro-2,6-difluorophenyl)-6-oxo-1,2,3,6-tetrahydropyridin-1-yl]-8-oxo-9,16-diazatricyclo[13.3.1.0^2,7]nonadeca-1(19),2(7),3,5,15,17-hexaen-5-yl]carbamate, TFA salt] | 270 | 214 | 
